“Also recorded” adds a separate entry of the source. Where two headings read alike, the source gives them in different places.
Tests used:
[1] = molecular target: T1, porcine kidney trehalase (Sus scrofa, UniProt I3LIR5); assay: Trehalase inhibition, coupled assay with glucose-6-phosphate dehydrogenase and hexokinase (dose-response); type: biochemical; conditions: 2.5 mM trehalose (close to Km), 30 °C; read-out: IC50 towards porcine trehalase
T1 construct: porcine kidney trehalase (purchased from Sigma-Aldrich); purchased Sigma-Aldrich; host or cells: porcine kidney
T1 sequence (I3LIR5 24-583): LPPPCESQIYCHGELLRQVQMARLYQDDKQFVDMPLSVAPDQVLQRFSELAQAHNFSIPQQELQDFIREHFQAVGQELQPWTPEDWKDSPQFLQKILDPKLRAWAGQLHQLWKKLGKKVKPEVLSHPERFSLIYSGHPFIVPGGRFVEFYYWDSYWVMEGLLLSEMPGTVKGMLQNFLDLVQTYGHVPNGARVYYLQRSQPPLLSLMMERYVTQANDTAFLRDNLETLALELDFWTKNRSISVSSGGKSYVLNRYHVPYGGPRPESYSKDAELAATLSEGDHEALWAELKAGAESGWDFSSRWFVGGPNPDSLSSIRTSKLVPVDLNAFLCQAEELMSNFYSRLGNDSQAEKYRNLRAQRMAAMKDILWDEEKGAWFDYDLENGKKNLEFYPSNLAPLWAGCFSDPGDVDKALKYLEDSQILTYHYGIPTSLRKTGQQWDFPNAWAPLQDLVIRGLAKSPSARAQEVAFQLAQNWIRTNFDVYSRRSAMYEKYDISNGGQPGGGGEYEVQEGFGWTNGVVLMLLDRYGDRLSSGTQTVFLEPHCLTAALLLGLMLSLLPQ
Protocol: (§1) Compounds were tested for their inhibitory activity against insect trehalase of midge larvae of C. riparius, a good model for biochemical studies, and porcine kidney trehalase (purchased from Sigma-Aldrich, St. Louis, MO, USA) as the mammalian counterpart.
(§2) Trehalase activity was measured through a coupled assay with glucose-6-phosphate dehydrogenase and hexokinase according to Wegener at al. To examine the potential of each compound as a trehalase inhibitor, dose-response curves were established to determine the IC50 values. Experiments were performed at a fixed substrate concentration close to the Km value (0.5 mM for C. riparius and 2.5 mM for porcine trehalase), in the presence of increasing inhibitor concentrations.Initial rates as a function of inhibitor concentration were fitted to the following equation:(1) vi/v=1/1+([I]/IC50)^n where vi and v are the initial rate in the presence and in the absence of inhibitor, respectively, [I] is the inhibitor concentration, IC50 is the inhibitor concentration producing half-maximal inhibition, and n is the Hill coefficient.
(§3) All enzyme assays were performed in triplicates at 30 °C by using sample volumes varying from 5 to 20 μL in 1 mL test and using a Cary3 UV/Vis Spectrophotometer. Enzyme activities were analyzed by Cary Win UV application software for Windows XP.

[2] = molecular target: T2, C. riparius trehalase (Chironomus riparius, UniProt J7EJ73); assay: Inhibition kinetics at varying trehalose concentration (Lineweaver-Burk plot and replots); type: biochemical; conditions: varying trehalose concentration at two inhibitor concentrations
Protocol: To evaluate the inhibitory pattern we performed kinetics measurements by varying the trehalose concentration, at two different concentrations of compounds 9α and 9β.
Kinetic experiments were performed using C. riparius trehalase, measuring enzymatic activity at different trehalose concentrations from 0.05 to 20 mM in the presence of fixed inhibitor concentrations (5–10 µM for the compound 9α and 0.5–1 µM for the compound 9β). Kinetic parameters were calculated using a multiparameter, iterative, non-linear regression program based on the Marquardt-Levenberg algorithm (Sigma Plot, Jandel, CA, USA). Data are given ± S.D. of three independent experiments.
as §3

[3] = molecular target: T2, C. riparius trehalase; assay: Trehalase inhibition, coupled assay with glucose-6-phosphate dehydrogenase and hexokinase (dose-response); type: biochemical
Protocol: as §1, §2, §3

[4] = molecular target: T1, porcine kidney trehalase; design: method as in PMID 25407551; conditions: value taken from the literature; ref [7]; read-out: IC50 towards porcine trehalase; cited from earlier work

T2 sequence (J7EJ73 entry or part of it): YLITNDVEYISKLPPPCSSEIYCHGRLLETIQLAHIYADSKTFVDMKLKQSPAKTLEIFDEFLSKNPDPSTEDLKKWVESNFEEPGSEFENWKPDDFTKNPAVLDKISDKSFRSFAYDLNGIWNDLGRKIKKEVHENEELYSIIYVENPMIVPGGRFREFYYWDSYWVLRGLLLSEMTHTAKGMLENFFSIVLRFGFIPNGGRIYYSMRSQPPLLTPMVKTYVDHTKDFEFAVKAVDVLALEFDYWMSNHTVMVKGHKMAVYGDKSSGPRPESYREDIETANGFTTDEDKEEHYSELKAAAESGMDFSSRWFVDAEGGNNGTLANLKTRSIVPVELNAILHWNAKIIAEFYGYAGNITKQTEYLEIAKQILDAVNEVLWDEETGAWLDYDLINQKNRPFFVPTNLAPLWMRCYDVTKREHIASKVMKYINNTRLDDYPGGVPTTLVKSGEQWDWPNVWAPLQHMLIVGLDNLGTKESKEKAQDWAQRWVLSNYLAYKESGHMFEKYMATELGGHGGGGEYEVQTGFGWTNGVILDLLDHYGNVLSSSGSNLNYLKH

IC50 [1] | Structure (SMILES) | Inhibitory activity towards C. riparius trehalase (in words) [3] | IC50 [4] | further results
5.84 ± 0.26 µM | OC[C@@H]1[C@@H](O)[C@H](O)CN1CCO[C@@H]1O[C@H](CO)[C@@H](O)[C@H](O)[C@H]1O [Compound 9β] |  |  | Inhibitory pattern (inhibition type) [2]: pure competitive
27.6 ± 5.35 µM | OC[C@@H]1[C@@H](O)[C@H](O)CN1CCO[C@H]1O[C@H](CO)[C@@H](O)[C@H](O)[C@H]1O [Compound 9α] |  |  | Inhibitory pattern (inhibition type) [2]: pure competitive
191 ± 34.1 µM | OC[C@@H]1[C@@H](O)[C@H](O)[C@H]2C[C@H](O[C@H]3O[C@H](CO)[C@@H](O)[C@H](O)[C@H]3O)CN12 [Compound 8, (1R,2R,3R,6S,7aR)-1,2-dihydroxy-3-(hydroxymethyl)hexahydro-1H-pyrrolizin-6-yl-α-hexopyranoside] | active only in the μM range |  | 
 | OC[C@@H]1[C@@H](O)[C@H](O)[C@H]2[C@H](O)[C@H](O)CN21 [Compound 6, (-)-uniflorine A] |  | > 1000 µM | 
 | OC[C@@H]1[C@@H](O)[C@H](O)[C@H]2C[C@H](O)CN12 [Compound 7, 7-deoxy-uniflorine A] |  | > 1000 µM | 
 | OC[C@@H]1[C@@H](O)[C@H](O)[C@H]2C[C@@H](O[C@H]3O[C@H](CO)[C@@H](O)[C@H](O)[C@H]3O)CN12 [Compound 4, 7-deoxycasuarine glucoside] |  | 0.479 ± 0.045 µM | 
 | OCC1OC(OCCCCN2CC(O)C(O)C2CO)C(O)C(O)C1O (stereo not drawn) [Compound 11] | loose completely their inhibitory properties; also recorded: completely inactive |  | 
7.67 ± 3.91 µM | OC[C@@H]1[C@@H](O)[C@H](O)CN1CCOC1O[C@H](CO)[C@@H](O)[C@H](O)[C@H]1O (stereo partly drawn) [9α,β] |  |  | 
 | OCC1OC(OCCCN2CC(O)C(O)C2CO)C(O)C(O)C1O (stereo not drawn) [Compound 10] | loose completely their inhibitory properties; also recorded: completely inactive |  | 

— publication PMC6017881, “Probing the Influence of Linker Length and Flexibility in the Design and Synthesis of New Trehalase Inhibitors” (Molecules : A Journal of Synthetic Chemistry and Natural …, 2018)
